# Measurements published in PubChem BioAssay (NCI).
#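 Compound exposure: 48 hours, 5 concentrations, 96-well plates. At the GI50, growth is halved. TGI is the concentration that stops growth completely.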 Where a SMILES comes first, the peptide text is derived from it. The star is where a group is joined. Boc = CC(C)(C)OC(=O)*; OBn = c1ccc(CO*)cc1
# Test system: NCI-H522 lung
# Assay: inhibition of tumour cell growth, NCI panel, 48 h
SMILES,TGI,GI50
O=c1[nH]n(Cc2ccccc2Cl)c2ccc([N+](=O)[O-])cc12,> 100 µM,
COc1cc2c[n+](C)c3c4cc5c(cc4ccc3c2cc1OC)OCO5,2.06 µM,
CCOC(=O)CCC(NC(=O)c1ccc(CNc2nc3ccccc3nc2C(=O)OCC)cc1)C(=O)OCC (stereo not drawn),> 100 µM,
COC(=O)Nc1nc2ccc(S(=O)(=O)NC(CC(C)C)C(=O)OC)cc2[nH]1 (stereo not drawn),0.888 µM,
OC(CCN1CCCCC1)(c1ccccc1)c1ccccc1,> 100 µM,
COC1CC(C)C(OC)C2=CC(=O)C=C(NC(=O)/C(C)=C/C=C\C(C)C(OC(N)=O)/C(C)=C\C(C)C1OC)C2=O (stereo not drawn),0.728 µM,0.0592 µM
O=C1c2ccccc2C(O)(C(=O)O)C1(O)CC=C(Cl)Cl (stereo not drawn),> 125 µM,
CN(C)C=Nc1cccc2nsnc12,> 100 µM,
CC(=O)O[C@@H]1CC[C@@]2(C)C(CC[C@H]3[C@@H]4CC[C@H]([C@H](C)CCc5nc6ccc(C)cc6[nH]5)[C@@]4(C)CC[C@@H]32)C1 (stereo partly drawn),> 100 µM,
COc1cccc(OC/C(N=Cc2cccnc2)=N/NC(=O)c2ccncc2)c1,> 100 µM,
Cc1csc2nc3c(cnn3C)c(=S)n12,41.9 µM,
COC(=O)C(C)NP(=O)(N1CC1)N1CC1 (stereo not drawn),> 100 µM,
Cc1ccc(-n2cnc3c(N)nc(N)nc32)cc1,> 100 µM,
Ic1ncnc2c1ncn2C1CCCO1 (stereo not drawn),> 100 µM,
COc1ccc(Nc2nnc(CCCCCCCCc3nnc(Nc4ccc(OC)cc4)o3)o2)cc1,> 100 µM,
O=c1c(C=Nc2ccccc2Cl)c(O)n(-c2ccccc2)c(=O)n1-c1ccccc1,> 100 µM,
CCOC(=O)NNC(=O)C1CSC(c2ccccc2)N1C(C)=O (stereo not drawn),> 100 µM,
O=[n+]1c2ccccc2n([O-])c2ccccc21,> 100 µM,
CC(C)(C)O/C=C1/C(=O)OC2C[C@@H](O[Si](C)(C)C(C)(C)C)CC12 (stereo partly drawn),87.4 µM,
CCCCCCCCCCCCCCCCCCNc1ccn(C2OC(COP(=O)(O)OC3CC(n4cc(F)c(=O)[nH]c4=O)OC3COP(=O)(O)OCC3OC(n4ccc(N)nc4=O)C(O)C3O)C(O)C2O)c(=O)n1 (stereo not drawn),> 69.7 µM,
CC(C)C(NC(=O)C(Cc1ccccc1)NC(=O)OC(C)(C)C)C(=O)NCC(=O)OCc1ccccc1 (stereo not drawn) (Boc-Phe-Val-Gly-OBn; configuration not given here),20.1 µM,

# Test system: SK-MEL-28 melanoma
# Assay: inhibition of tumour cell growth, NCI panel, 48 h
row,SMILES,TGI
1,Cc1oc2c(c1C)S(=O)(=O)C(C#N)C(c1ccccc1)N2 (stereo not drawn),> 100 µM
2,CC(=O)Oc1cc2c(n(C)c1=O)-c1ccccc1C2,> 100 µM
3,Nc1nc(N)c2cc(Sc3ccc4nc(N)nc(N)c4c3)ccc2n1,> 100 µM
4,N#CC(C#N)N=Cc1ccncc1,> 100 µM
5,COc1ccc2c(c1)/C(=C\c1c(C)nc3n1CCS3)C(=O)N2,> 100 µM
6,CN(C)C=C1C(=O)c2c(Br)sc(Br)c2C1=O,31.3 µM
7,O=c1[nH]n(Cc2ccccc2Cl)c2ccc([N+](=O)[O-])cc12,> 100 µM
8,COc1cc2c[n+](C)c3c4cc5c(cc4ccc3c2cc1OC)OCO5,> 82.4 µM
9,CCOC(=O)CCC(NC(=O)c1ccc(CNc2nc3ccccc3nc2C(=O)OCC)cc1)C(=O)OCC (stereo not drawn),> 100 µM
10,COC(=O)Nc1nc2ccc(S(=O)(=O)NC(CC(C)C)C(=O)OC)cc2[nH]1 (stereo not drawn),> 100 µM
11,Cc1cc([C@H](C#N)c2nc3ccccc3[nH]2)nc(Cl)n1,> 100 µM
12,OC(CCN1CCCCC1)(c1ccccc1)c1ccccc1,> 100 µM
13,COC1CC(C)C(OC)C2=CC(=O)C=C(NC(=O)/C(C)=C/C=C\C(C)C(OC(N)=O)/C(C)=C\C(C)C1OC)C2=O (stereo not drawn),1.05 µM
14,O=C1c2ccccc2C(O)(C(=O)O)C1(O)CC=C(Cl)Cl (stereo not drawn),> 125 µM
15,CN(C)C=Nc1cccc2nsnc12,> 100 µM
16,CC(=O)O[C@@H]1CC[C@@]2(C)C(CC[C@H]3[C@@H]4CC[C@H]([C@H](C)CCc5nc6ccc(C)cc6[nH]5)[C@@]4(C)CC[C@@H]32)C1 (stereo partly drawn),> 100 µM
17,COc1cccc(OC/C(N=Cc2cccnc2)=N/NC(=O)c2ccncc2)c1,> 100 µM
18,Cc1csc2nc3c(cnn3C)c(=S)n12,> 100 µM
19,COC(=O)C(C)NP(=O)(N1CC1)N1CC1 (stereo not drawn),> 100 µM
20,Cc1ccc(-n2cnc3c(N)nc(N)nc32)cc1,> 100 µM
21,Ic1ncnc2c1ncn2C1CCCO1 (stereo not drawn),> 100 µM
22,COc1ccc(Nc2nnc(CCCCCCCCc3nnc(Nc4ccc(OC)cc4)o3)o2)cc1,> 100 µM
23,O=[n+]1c2ccccc2n([O-])c2ccccc21,> 100 µM
24,CC(C)(C)O/C=C1/C(=O)OC2C[C@@H](O[Si](C)(C)C(C)(C)C)CC12 (stereo partly drawn),> 100 µM
25,CCCCCCCCCCCCCCCCCCNc1ccn(C2OC(COP(=O)(O)OC3CC(n4cc(F)c(=O)[nH]c4=O)OC3COP(=O)(O)OCC3OC(n4ccc(N)nc4=O)C(O)C3O)C(O)C2O)c(=O)n1 (stereo not drawn),> 100 µM
26,CC(C)C(NC(=O)C(Cc1ccccc1)NC(=O)OC(C)(C)C)C(=O)NCC(=O)OCc1ccccc1 (stereo not drawn) (Boc-Phe-Val-Gly-OBn; configuration not given here),30.5 µM

# Test system: SNB-75 CNS
# Assay: inhibition of tumour cell growth, NCI panel, 48 h
row,SMILES,TGI
1,Cc1oc2c(c1C)S(=O)(=O)C(C#N)C(c1ccccc1)N2 (stereo not drawn),> 100 µM
2,CC(=O)Oc1cc2c(n(C)c1=O)-c1ccccc1C2,> 100 µM
3,Nc1nc(N)c2cc(Sc3ccc4nc(N)nc(N)c4c3)ccc2n1,> 100 µM
4,N#CC(C#N)N=Cc1ccncc1,> 100 µM
5,COc1ccc2c(c1)/C(=C\c1c(C)nc3n1CCS3)C(=O)N2,> 100 µM
6,CN(C)C=C1C(=O)c2c(Br)sc(Br)c2C1=O,43.5 µM
7,O=c1[nH]n(Cc2ccccc2Cl)c2ccc([N+](=O)[O-])cc12,> 100 µM
8,COc1cc2c[n+](C)c3c4cc5c(cc4ccc3c2cc1OC)OCO5,0.767 µM
9,CCOC(=O)CCC(NC(=O)c1ccc(CNc2nc3ccccc3nc2C(=O)OCC)cc1)C(=O)OCC (stereo not drawn),> 100 µM
10,COC(=O)Nc1nc2ccc(S(=O)(=O)NC(CC(C)C)C(=O)OC)cc2[nH]1 (stereo not drawn),8.16 µM
11,Cc1cc([C@H](C#N)c2nc3ccccc3[nH]2)nc(Cl)n1,93.4 µM
12,COC1CC(C)C(OC)C2=CC(=O)C=C(NC(=O)/C(C)=C/C=C\C(C)C(OC(N)=O)/C(C)=C\C(C)C1OC)C2=O (stereo not drawn),16.1 µM
13,O=C1c2ccccc2C(O)(C(=O)O)C1(O)CC=C(Cl)Cl (stereo not drawn),> 125 µM
14,CN(C)C=Nc1cccc2nsnc12,> 100 µM
15,CC(=O)O[C@@H]1CC[C@@]2(C)C(CC[C@H]3[C@@H]4CC[C@H]([C@H](C)CCc5nc6ccc(C)cc6[nH]5)[C@@]4(C)CC[C@@H]32)C1 (stereo partly drawn),24.1 µM
16,COc1cccc(OC/C(N=Cc2cccnc2)=N/NC(=O)c2ccncc2)c1,> 100 µM
17,Cc1csc2nc3c(cnn3C)c(=S)n12,> 100 µM
18,C/C1=C/C(C)CC(C)OC(=O)C(C)NC(=O)C(Cc2ccc(O)c(I)c2)N(C)C(=O)CNC(=O)C(C)C1 (stereo not drawn),< 0.0141 µM
19,COC(=O)C(C)NP(=O)(N1CC1)N1CC1 (stereo not drawn),> 100 µM
20,Cc1ccc(-n2cnc3c(N)nc(N)nc32)cc1,> 100 µM
21,Ic1ncnc2c1ncn2C1CCCO1 (stereo not drawn),> 100 µM
22,COc1ccc(Nc2nnc(CCCCCCCCc3nnc(Nc4ccc(OC)cc4)o3)o2)cc1,> 100 µM
23,CCOC(=O)NNC(=O)C1CSC(c2ccccc2)N1C(C)=O (stereo not drawn),> 100 µM
24,O=[n+]1c2ccccc2n([O-])c2ccccc21,> 100 µM
25,CC(C)(C)O/C=C1/C(=O)OC2C[C@@H](O[Si](C)(C)C(C)(C)C)CC12 (stereo partly drawn),93.3 µM
26,CCCCCCCCCCCCCCCCCCNc1ccn(C2OC(COP(=O)(O)OC3CC(n4cc(F)c(=O)[nH]c4=O)OC3COP(=O)(O)OCC3OC(n4ccc(N)nc4=O)C(O)C3O)C(O)C2O)c(=O)n1 (stereo not drawn),> 100 µM
27,CC(C)C(NC(=O)C(Cc1ccccc1)NC(=O)OC(C)(C)C)C(=O)NCC(=O)OCc1ccccc1 (stereo not drawn) (Boc-Phe-Val-Gly-OBn; configuration not given here),36 µM

# Test system: SR leukemia
# Assay: inhibition of tumour cell growth, NCI panel, 48 h
row,SMILES,TGI
1,Nc1nc(N)c2cc(Sc3ccc4nc(N)nc(N)c4c3)ccc2n1,> 100 µM
2,COc1ccc2c(c1)/C(=C\c1c(C)nc3n1CCS3)C(=O)N2,> 100 µM
3,O=c1[nH]n(Cc2ccccc2Cl)c2ccc([N+](=O)[O-])cc12,> 100 µM
4,COc1cc2c[n+](C)c3c4cc5c(cc4ccc3c2cc1OC)OCO5,22.8 µM
5,Cc1cc([C@H](C#N)c2nc3ccccc3[nH]2)nc(Cl)n1,> 100 µM
6,COC1CC(C)C(OC)C2=CC(=O)C=C(NC(=O)/C(C)=C/C=C\C(C)C(OC(N)=O)/C(C)=C\C(C)C1OC)C2=O (stereo not drawn),0.729 µM
7,Cc1csc2nc3c(cnn3C)c(=S)n12,> 100 µM
8,Ic1ncnc2c1ncn2C1CCCO1 (stereo not drawn),> 100 µM
9,O=[n+]1c2ccccc2n([O-])c2ccccc21,> 100 µM
10,CCCCCCCCCCCCCCCCCCNc1ccn(C2OC(COP(=O)(O)OC3CC(n4cc(F)c(=O)[nH]c4=O)OC3COP(=O)(O)OCC3OC(n4ccc(N)nc4=O)C(O)C3O)C(O)C2O)c(=O)n1 (stereo not drawn),25.6 µM

# Test system: SW-620 colon
# Assay: inhibition of tumour cell growth, NCI panel, 48 h
row,SMILES,TGI
1,Cc1oc2c(c1C)S(=O)(=O)C(C#N)C(c1ccccc1)N2 (stereo not drawn),> 100 µM
2,CC(=O)Oc1cc2c(n(C)c1=O)-c1ccccc1C2,65.9 µM
3,Nc1nc(N)c2cc(Sc3ccc4nc(N)nc(N)c4c3)ccc2n1,> 100 µM
4,N#CC(C#N)N=Cc1ccncc1,> 100 µM
5,COc1ccc2c(c1)/C(=C\c1c(C)nc3n1CCS3)C(=O)N2,> 100 µM
6,CN(C)C=C1C(=O)c2c(Br)sc(Br)c2C1=O,> 100 µM
7,O=c1[nH]n(Cc2ccccc2Cl)c2ccc([N+](=O)[O-])cc12,> 100 µM
8,COc1cc2c[n+](C)c3c4cc5c(cc4ccc3c2cc1OC)OCO5,26 µM
9,CCOC(=O)CCC(NC(=O)c1ccc(CNc2nc3ccccc3nc2C(=O)OCC)cc1)C(=O)OCC (stereo not drawn),> 100 µM
10,COC(=O)Nc1nc2ccc(S(=O)(=O)NC(CC(C)C)C(=O)OC)cc2[nH]1 (stereo not drawn),> 100 µM
11,Cc1cc([C@H](C#N)c2nc3ccccc3[nH]2)nc(Cl)n1,> 100 µM
12,OC(CCN1CCCCC1)(c1ccccc1)c1ccccc1,> 100 µM
13,COC1CC(C)C(OC)C2=CC(=O)C=C(NC(=O)/C(C)=C/C=C\C(C)C(OC(N)=O)/C(C)=C\C(C)C1OC)C2=O (stereo not drawn),1.05 µM
14,O=C1c2ccccc2C(O)(C(=O)O)C1(O)CC=C(Cl)Cl (stereo not drawn),> 125 µM
15,CC(=O)O[C@@H]1CC[C@@]2(C)C(CC[C@H]3[C@@H]4CC[C@H]([C@H](C)CCc5nc6ccc(C)cc6[nH]5)[C@@]4(C)CC[C@@H]32)C1 (stereo partly drawn),> 100 µM
16,COc1cccc(OC/C(N=Cc2cccnc2)=N/NC(=O)c2ccncc2)c1,> 100 µM
17,Cc1csc2nc3c(cnn3C)c(=S)n12,> 100 µM
18,C/C1=C/C(C)CC(C)OC(=O)C(C)NC(=O)C(Cc2ccc(O)c(I)c2)N(C)C(=O)CNC(=O)C(C)C1 (stereo not drawn),> 100 µM
19,COC(=O)C(C)NP(=O)(N1CC1)N1CC1 (stereo not drawn),> 100 µM
20,Cc1ccc(-n2cnc3c(N)nc(N)nc32)cc1,> 100 µM
21,Ic1ncnc2c1ncn2C1CCCO1 (stereo not drawn),> 100 µM
22,COc1ccc(Nc2nnc(CCCCCCCCc3nnc(Nc4ccc(OC)cc4)o3)o2)cc1,> 100 µM
23,O=c1c(C=Nc2ccccc2Cl)c(O)n(-c2ccccc2)c(=O)n1-c1ccccc1,> 100 µM
24,CCOC(=O)NNC(=O)C1CSC(c2ccccc2)N1C(C)=O (stereo not drawn),> 100 µM
25,O=[n+]1c2ccccc2n([O-])c2ccccc21,> 100 µM
26,CC(C)(C)O/C=C1/C(=O)OC2C[C@@H](O[Si](C)(C)C(C)(C)C)CC12 (stereo partly drawn),> 100 µM
27,CCCCCCCCCCCCCCCCCCNc1ccn(C2OC(COP(=O)(O)OC3CC(n4cc(F)c(=O)[nH]c4=O)OC3COP(=O)(O)OCC3OC(n4ccc(N)nc4=O)C(O)C3O)C(O)C2O)c(=O)n1 (stereo not drawn),> 57.3 µM
28,CC(C)C(NC(=O)C(Cc1ccccc1)NC(=O)OC(C)(C)C)C(=O)NCC(=O)OCc1ccccc1 (stereo not drawn) (Boc-Phe-Val-Gly-OBn; configuration not given here),29.1 µM
